Test results: ChEMBL document CHEMBL1201862, “PubChem BioAssay data set” (2004)
Structures can show the parent of a compound that is named as a salt. Active and inactive are the calls of the source.

What was measured:
[1] = system: HeLa; experiment: Cytotoxicity counterscreen assay for transcriptional activators of heat shock protein 70 (Hsp70). [Related pubchem assays: 1203, 1252 ]; type: functional; conditions: Homo sapiens;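 note: cells exposed to compound for 16 hours before readout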
[2] = target: T1, Microphthalmia-associated transcription factor (Homo sapiens, UniProt O75030); experiment: TRPM1 promoter luciferase signal decrease, dose response, MITF inhibitor project, cell-based, SK-MEL-5, cherry-picked, set 3 (AID 493073); type: functional
T1 sequence (O75030 whole entry): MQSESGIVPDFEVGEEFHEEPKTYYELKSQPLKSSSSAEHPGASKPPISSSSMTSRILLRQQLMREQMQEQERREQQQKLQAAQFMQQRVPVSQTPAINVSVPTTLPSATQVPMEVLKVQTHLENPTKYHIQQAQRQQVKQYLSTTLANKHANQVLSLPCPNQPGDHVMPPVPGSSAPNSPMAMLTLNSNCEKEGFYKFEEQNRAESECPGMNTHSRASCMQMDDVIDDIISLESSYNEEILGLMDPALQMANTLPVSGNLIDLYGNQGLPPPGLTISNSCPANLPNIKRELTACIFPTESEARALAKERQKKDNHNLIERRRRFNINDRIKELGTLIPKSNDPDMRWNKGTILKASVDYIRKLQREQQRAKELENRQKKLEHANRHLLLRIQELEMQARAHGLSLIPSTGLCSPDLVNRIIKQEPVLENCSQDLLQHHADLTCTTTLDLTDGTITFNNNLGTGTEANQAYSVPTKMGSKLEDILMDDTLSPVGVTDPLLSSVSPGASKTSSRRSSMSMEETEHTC

[3] = Shn3 3'UTR reporter inhibitors, dose response, cell-based, Clone20 osteoblasts, firefly luciferase, cherry-picked (AID 624132); type: functional;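 note: firefly luciferase luminescence from reporter carrying the Shn3 3'UTR in osteoblasts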
[4] = HepG2 cell cytotoxicity, dose response, cytotoxicity control for Shn3 inhibitor project, CellTiter-Glo, cherry-picked (AID 624134); type: functional, cell-based
[5] = control 3'UTR Renilla luciferase suppression, dose response, counter-screen for Shn3 inhibitor project, cell-based, Clone20-Shn3RL, cherry-picked (AID 624133); type: functional
[6] = A549 cell cytotoxicity, dose response, cytotoxicity control, cherry-picks, 26 µM top dose (AID 1053119); type: functional, cell-based
[7] = target: NS3 (Hepatitis C virus, UniProt A3EZJ3); experiment: PubChem AID 2173; parameters: species or system Hepacivirus hominis
[8] = NIH-3T3 fibroblast cytotoxicity, dose response, cytotoxicity control, cell-based, fluorescence, Alamar Blue, secondary assay (AID 2327); type: functional;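 note: NIH-3T3 mouse fibroblasts cultured with fluconazole at 8 µg/mL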
[9] = target: Serine/threonine-protein phosphatase PP1-alpha catalytic subunit (Homo sapiens, UniProt P62136); experiment: PP1 phosphatase inhibitors, dose response, biochemical, fluorescence (AID 2403);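 note: phosphatase turnover of OMFP into fluorescent 3-O-methylfluorescein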
[10] = C. albicans growth with fluconazole, confirmation, fluorescence, retest (AID 2467); type: functional, cell-based
[11] = cytotoxicity in HPDE-C7 cells, cell-based, fluorescence, HTS (AID 430); type: functional; conditions: Homo sapiens
[12] = cytotoxicity in KRAS-transformed pancreatic duct cells, primary screen, cell-based, fluorescence, HTS (AID 431); type: functional; conditions: Homo sapiens;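 note: cell line used: HPDE-C7K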
[13] = target: Serine/threonine-protein phosphatase (Homo sapiens, UniProt Q9BPW0); experiment: Counterscreen for inhibitors of PP1: fluorescence-based biochemical high throughput dose response assay to identify inhibitors of Protein Phosphatase 5 (PP5). [Related pubchem assays: 2034 (Summary (PP5 inhibitors)), 1987 (PP5 inhibitors in singlate), 2235 (PP1 inhibitors in singlate)]
[14] = target: Estrogen receptor beta (Homo sapiens, UniProt Q92731); experiment: ERβ–SRC-3 coactivator interaction inhibitors, confirmation, orthogonal assay, biochemical, ELISA, streptavidin-HRP readout (AID 1060)
[15] = target: T2, Mannose-6-phosphate isomerase (Homo sapiens, UniProt P34949); experiment: human PMI inhibitors, high substrate, primary screen, biochemical, fluorescence intensity, high mannose 6-phosphate (AID 1220)
T2 sequence (P34949 whole entry): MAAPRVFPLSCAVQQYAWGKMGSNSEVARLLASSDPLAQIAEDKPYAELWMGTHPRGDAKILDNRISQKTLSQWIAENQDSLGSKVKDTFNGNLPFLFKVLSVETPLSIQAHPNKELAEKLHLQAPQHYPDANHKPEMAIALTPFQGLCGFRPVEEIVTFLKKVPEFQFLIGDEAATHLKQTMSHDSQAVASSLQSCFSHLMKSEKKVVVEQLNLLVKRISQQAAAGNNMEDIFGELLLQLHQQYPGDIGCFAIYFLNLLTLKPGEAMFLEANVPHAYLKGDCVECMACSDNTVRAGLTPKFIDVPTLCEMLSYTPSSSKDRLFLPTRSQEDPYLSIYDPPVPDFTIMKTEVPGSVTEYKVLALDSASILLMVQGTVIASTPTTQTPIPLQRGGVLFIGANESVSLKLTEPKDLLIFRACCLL

[16] = target: T3, Heat shock factor protein 1 (Mus musculus, UniProt P38532); experiment: HSF1 potentiators in luciferase reporter cells, confirmation, cell-based, NIH3T3, luminescence, dose retest (AID 435004); type: functional;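 note: stress induced by proteasome inhibitor MG132 added 30 min after compound; luciferase reporter driven by HSF1 response element in NIH3T3 cells; actives raise luminescence as potentiators of the MG132 stress response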
T3 sequence (P38532 whole entry): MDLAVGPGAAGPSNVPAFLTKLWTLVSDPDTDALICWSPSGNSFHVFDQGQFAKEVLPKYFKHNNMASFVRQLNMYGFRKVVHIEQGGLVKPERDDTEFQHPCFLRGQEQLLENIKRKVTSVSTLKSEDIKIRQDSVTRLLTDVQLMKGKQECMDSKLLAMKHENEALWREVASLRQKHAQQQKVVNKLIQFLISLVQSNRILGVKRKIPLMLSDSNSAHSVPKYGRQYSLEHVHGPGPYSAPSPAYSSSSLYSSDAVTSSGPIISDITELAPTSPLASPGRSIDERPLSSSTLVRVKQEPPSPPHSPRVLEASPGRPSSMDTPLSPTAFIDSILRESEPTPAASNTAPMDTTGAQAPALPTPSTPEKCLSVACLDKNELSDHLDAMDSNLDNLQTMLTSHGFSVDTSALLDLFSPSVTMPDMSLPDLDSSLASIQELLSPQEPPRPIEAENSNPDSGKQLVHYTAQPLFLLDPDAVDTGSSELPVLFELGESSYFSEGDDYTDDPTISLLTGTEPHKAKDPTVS

[17] = target: Beta-galactosidase (Escherichia coli, UniProt Q8VNN2); type: functional
[18] = target: 5-hydroxytryptamine receptor 1E (Homo sapiens, UniProt P28566); experiment: Counterscreen assay for S1P3 antagonists: Dose response cell-based high throughput screening assay to identify antagonists of the 5-Hydroxytryptamine Receptor Subtype 1E (5HT1E). [Related pubchem assays: 1429, 485 ]; type: functional
[19] = target: Sphingosine 1-phosphate receptor 3 (Homo sapiens, UniProt Q99500); experiment: Dose response cell-based high throughput screening assay for antagonists of the Sphingosine 1-Phosphate Receptor 3 (S1P3). [Related pubchem assays: 1429, 485 ]; type: functional
[20] = enhancers of respiration in Yfh1-depleted yeast, dose response, Friedreich's ataxia, plus single-dose screen (AID 1465); type: functional;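 note: yeast depleted of Yfh1p frataxin homolog grown on glycerol needing respiration; WST-1 tetrazolium dye reduction as measure of cellular dehydrogenase metabolic activity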
[21] = target: G2/mitotic-specific cyclin-B1 (Homo sapiens, UniProt P14635); experiment: Counterscreen assay for inhibitors of Wee1 degradation: dose response cell-based assay to identify inhibitors of cyclin B degradation. [Related pubchem assays: 1410, 1321 ]; type: functional
[22] = target: Wee1-like protein kinase (Homo sapiens, UniProt P30291); experiment: Dose Response Cell-based Assay for Inhibitors of Wee1 Degradation. [Related pubchem assays: 1410, 1321 ]; type: functional
[23] = system: Streptococcus sp. 'group A'; experiment: growth inhibition of control SK(-) GAS strain, dose response, counter-screen for streptokinase expression inhibitor project, luminescence, kanamycin, BacTiterGlo, confirmation (AID 1900); type: functional, organism-based
[24] = system: Streptococcus; experiment: Luminescence Microorganism-Based Dose Response Follow up to Identify Compounds Cytotoxic to Streptococcus. [Related pubchem assays: 1677 (Project Summary), 1915, 1914, 1902 (Retest at Dose), 1900 (Counter Screen), 1662 (Primary HTS)]; type: functional, organism-based
[25] = target: T4, Streptokinase A (Streptococcus pyogenes serotype M1, UniProt P10520); experiment: S. pyogenes streptokinase expression inhibitors, potency, dose response, plasminogen activation absorbance, OD405 (AID 1914); type: functional, Streptococcus pyogenes M1 GAS;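 note: secreted streptokinase activity via plasminogen activation per viability signal from cell pellet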
T4 sequence (P10520 whole entry): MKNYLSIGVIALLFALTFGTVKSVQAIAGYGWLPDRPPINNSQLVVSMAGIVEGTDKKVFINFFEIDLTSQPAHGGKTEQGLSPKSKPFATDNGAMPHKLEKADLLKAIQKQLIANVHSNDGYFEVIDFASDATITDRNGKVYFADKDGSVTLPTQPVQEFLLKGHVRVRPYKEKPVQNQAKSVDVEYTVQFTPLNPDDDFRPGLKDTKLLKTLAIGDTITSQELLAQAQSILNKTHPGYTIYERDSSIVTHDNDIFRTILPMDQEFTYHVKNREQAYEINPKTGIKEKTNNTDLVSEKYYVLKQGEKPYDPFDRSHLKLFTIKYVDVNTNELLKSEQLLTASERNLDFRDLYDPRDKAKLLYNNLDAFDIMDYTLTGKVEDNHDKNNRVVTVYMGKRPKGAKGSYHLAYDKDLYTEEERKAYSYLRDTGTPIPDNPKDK

[26] = system: Streptococcus; experiment: Group A Streptococcus viability loss, dose response, counter-screen for streptokinase expression inhibitor project, luminescence, BacTiterGlo (AID 1915); type: functional, organism-based;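 note: potency for reduction of bacterial viability or growth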
[27] = Luminescence Cell-Based Dose Retest to Confirm Inhibitors of Cancer Stem Cells. [Related pubchem assays (depositor defined):AID2717, AID2721]; type: functional; conditions: Homo sapiens
[28] = Luminescence-based counterscreen assay for KLF5 inhibitors: dose response cell-based high throughput screening assay to identify cytotoxic compounds using the IEC-6 intestinal epithelial cell line. [Related pubchem assays: 1700 (Primary screen.), 1834 (Confirmation screen.), 1858 (Summary AID.), 1905 (Counterscreen.)]; type: functional
[29] = inhibitors of firefly luciferase expression or activity, dose response, H4 neuroglioma cells, luminescence (AID 1990); type: functional, cell-based
[30] = luciferase reporter signal reduction – luminescence, H4-C neuroglioblastoma cells, dose response (AID 2458); type: functional, cell-based;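 note: H4 neuroglioblastoma cells stably carrying a luciferase reporter gene fusion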
[31] = cells; type: functional, cell-based
[32] = inhibitors of SNCA 5'UTR-driven reporter translation, confirmation, H4 neuroglioma cells, luminescence (AID 1988); type: functional, cell-based
[33] = target: T5, Estrogen receptor (Homo sapiens, UniProt P03372);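 note: potency for inhibiting coactivator peptide recruitment to the receptor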
T5 sequence (P03372 whole entry): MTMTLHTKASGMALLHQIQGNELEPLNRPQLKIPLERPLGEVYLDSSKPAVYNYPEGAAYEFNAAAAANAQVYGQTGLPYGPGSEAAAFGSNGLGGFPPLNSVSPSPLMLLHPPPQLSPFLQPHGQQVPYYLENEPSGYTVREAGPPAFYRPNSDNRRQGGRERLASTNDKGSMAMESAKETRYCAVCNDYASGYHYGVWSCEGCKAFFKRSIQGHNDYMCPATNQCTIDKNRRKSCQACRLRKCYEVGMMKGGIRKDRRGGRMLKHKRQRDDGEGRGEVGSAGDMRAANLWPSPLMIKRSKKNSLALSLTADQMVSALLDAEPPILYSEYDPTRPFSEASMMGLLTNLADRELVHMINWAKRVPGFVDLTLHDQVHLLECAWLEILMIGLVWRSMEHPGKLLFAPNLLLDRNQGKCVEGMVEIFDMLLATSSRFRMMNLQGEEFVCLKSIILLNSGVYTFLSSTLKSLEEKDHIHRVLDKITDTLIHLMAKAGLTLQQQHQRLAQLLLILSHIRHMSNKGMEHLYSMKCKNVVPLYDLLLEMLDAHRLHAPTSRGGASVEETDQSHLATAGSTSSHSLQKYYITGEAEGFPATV

[34] = inhibitors of SNCA 5'UTR-driven translation, confirmation, luminescence, H4 neuroglioblastoma cells, dose confirmation (AID 2454); type: functional, cell-based;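 note: H4 neuroglioblastoma cells carrying an alpha-synuclein 5'UTR luciferase reporter; potency for inhibition of the luciferase signal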

Sequence of G2/mitotic-specific cyclin-B1 (P14635 whole entry): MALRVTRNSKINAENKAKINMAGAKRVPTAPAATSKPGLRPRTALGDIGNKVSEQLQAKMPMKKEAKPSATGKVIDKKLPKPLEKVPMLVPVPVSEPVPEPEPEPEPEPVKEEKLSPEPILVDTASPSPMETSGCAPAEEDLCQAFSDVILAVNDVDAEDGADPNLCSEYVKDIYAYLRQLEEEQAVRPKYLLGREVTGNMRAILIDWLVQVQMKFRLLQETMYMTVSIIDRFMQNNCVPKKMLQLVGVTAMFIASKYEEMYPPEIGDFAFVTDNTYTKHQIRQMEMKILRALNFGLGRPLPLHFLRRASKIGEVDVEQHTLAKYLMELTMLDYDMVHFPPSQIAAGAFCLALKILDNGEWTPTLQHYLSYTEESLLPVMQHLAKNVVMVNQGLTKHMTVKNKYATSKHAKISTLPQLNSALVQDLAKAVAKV
Sequence of Sphingosine 1-phosphate receptor 3 (Q99500 whole entry): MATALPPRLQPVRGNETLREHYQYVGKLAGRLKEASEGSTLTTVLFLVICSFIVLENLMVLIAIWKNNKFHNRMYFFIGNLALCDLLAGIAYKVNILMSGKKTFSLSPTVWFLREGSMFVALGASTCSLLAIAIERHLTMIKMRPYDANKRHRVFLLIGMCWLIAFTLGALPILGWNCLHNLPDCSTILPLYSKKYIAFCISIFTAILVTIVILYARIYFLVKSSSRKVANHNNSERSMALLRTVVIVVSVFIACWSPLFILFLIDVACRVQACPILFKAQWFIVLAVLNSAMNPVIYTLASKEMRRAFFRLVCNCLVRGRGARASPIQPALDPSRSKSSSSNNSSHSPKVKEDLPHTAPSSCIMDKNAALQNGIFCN
Sequence of Wee1-like protein kinase (P30291 whole entry): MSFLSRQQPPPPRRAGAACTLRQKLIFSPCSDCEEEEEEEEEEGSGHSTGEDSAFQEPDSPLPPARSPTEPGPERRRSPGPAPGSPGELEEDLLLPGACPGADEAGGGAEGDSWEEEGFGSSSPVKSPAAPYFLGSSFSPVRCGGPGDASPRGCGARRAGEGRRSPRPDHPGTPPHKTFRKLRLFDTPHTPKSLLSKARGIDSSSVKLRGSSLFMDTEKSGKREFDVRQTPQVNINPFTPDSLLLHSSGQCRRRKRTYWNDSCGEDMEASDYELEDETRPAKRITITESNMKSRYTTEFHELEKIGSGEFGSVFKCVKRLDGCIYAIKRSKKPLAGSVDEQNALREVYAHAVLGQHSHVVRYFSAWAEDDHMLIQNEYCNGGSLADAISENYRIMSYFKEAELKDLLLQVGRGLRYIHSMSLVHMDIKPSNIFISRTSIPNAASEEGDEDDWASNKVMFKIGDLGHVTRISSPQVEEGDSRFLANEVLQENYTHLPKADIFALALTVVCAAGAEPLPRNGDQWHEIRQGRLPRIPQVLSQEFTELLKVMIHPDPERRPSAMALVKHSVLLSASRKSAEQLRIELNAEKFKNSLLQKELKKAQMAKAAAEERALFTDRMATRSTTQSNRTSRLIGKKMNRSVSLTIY
Sequence of Serine/threonine-protein phosphatase (Q9BPW0 whole entry): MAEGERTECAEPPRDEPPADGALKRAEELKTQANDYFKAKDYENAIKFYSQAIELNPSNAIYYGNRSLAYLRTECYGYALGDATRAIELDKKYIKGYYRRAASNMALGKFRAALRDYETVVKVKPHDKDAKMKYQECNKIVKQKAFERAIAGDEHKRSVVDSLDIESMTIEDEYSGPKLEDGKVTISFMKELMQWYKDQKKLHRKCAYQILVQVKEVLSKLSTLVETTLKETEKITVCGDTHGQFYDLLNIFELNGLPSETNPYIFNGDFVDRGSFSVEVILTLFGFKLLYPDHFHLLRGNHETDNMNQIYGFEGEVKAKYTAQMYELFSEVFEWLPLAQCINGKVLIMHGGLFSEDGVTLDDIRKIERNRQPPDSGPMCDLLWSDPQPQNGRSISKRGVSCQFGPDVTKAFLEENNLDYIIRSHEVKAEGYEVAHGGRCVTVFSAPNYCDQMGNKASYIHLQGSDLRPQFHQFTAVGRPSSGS
Sequence of Beta-galactosidase (Q8VNN2 whole entry): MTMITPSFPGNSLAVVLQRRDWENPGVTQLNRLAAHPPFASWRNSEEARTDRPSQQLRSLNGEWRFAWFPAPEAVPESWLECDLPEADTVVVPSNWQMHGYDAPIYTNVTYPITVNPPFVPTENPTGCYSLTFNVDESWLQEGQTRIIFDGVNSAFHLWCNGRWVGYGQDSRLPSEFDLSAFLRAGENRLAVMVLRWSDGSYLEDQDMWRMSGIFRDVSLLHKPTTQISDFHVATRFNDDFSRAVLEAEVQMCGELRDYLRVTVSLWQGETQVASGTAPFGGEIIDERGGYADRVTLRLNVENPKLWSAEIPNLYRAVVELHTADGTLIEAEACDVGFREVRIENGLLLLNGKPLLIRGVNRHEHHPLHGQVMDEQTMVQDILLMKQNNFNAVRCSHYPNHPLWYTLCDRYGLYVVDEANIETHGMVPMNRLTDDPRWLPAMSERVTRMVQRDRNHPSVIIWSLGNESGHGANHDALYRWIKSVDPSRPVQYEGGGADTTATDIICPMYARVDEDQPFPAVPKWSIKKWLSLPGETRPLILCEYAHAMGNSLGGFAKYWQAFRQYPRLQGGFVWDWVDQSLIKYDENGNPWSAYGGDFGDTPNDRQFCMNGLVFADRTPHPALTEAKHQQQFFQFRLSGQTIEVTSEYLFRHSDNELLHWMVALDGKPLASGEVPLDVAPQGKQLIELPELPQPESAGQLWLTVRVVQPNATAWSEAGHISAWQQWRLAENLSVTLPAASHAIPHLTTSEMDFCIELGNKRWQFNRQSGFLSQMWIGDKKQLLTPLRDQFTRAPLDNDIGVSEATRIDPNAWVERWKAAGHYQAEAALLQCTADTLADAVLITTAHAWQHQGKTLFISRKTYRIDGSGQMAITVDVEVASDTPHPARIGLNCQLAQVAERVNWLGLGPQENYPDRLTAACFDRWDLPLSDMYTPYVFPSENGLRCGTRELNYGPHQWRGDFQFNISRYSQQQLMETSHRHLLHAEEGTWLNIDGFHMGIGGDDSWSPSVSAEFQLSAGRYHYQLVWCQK
Sequence of 5-hydroxytryptamine receptor 1E (P28566 whole entry): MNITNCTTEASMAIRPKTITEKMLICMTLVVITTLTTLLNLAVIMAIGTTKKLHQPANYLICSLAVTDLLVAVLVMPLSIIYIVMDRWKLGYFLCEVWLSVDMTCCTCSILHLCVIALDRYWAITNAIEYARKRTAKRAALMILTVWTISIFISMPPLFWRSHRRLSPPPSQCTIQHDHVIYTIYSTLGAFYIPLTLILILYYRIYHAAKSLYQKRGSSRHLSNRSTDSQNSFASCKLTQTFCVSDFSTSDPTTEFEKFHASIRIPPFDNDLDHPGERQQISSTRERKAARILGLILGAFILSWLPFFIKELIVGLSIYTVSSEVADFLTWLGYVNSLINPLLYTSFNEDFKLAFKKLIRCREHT
Sequence of NS3 (A3EZJ3 whole entry): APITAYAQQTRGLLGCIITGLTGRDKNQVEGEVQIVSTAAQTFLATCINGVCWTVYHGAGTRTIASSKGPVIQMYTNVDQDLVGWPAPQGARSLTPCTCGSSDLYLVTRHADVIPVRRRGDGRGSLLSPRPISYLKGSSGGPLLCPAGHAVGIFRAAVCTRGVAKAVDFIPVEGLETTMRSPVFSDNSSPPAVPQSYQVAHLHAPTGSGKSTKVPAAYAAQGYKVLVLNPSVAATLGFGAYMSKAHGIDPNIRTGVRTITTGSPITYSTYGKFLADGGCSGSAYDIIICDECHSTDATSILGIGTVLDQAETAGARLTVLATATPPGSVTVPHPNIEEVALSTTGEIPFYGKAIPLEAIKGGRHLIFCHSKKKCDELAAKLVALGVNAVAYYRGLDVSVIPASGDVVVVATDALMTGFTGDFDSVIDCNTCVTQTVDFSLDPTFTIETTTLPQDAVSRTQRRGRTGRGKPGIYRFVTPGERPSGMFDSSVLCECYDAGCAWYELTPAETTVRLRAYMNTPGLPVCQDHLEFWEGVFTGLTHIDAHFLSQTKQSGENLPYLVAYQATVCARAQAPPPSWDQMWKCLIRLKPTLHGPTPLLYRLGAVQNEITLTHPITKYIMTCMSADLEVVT
Sequence of Estrogen receptor beta (Q92731 whole entry): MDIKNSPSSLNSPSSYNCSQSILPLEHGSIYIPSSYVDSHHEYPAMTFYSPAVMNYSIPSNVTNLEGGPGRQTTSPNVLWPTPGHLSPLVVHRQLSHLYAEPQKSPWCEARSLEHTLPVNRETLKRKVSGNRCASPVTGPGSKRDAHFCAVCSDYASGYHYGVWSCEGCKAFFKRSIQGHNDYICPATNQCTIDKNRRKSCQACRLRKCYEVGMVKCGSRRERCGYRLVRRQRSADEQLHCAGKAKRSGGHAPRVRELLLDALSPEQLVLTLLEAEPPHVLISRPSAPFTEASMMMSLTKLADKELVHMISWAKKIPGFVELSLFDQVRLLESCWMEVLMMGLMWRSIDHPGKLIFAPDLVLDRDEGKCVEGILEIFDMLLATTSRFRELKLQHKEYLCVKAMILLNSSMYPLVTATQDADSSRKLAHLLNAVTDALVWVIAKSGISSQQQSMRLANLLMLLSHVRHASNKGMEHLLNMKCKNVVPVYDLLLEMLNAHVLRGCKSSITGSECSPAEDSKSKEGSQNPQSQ
Sequence of Serine/threonine-protein phosphatase PP1-alpha catalytic subunit (P62136 whole entry): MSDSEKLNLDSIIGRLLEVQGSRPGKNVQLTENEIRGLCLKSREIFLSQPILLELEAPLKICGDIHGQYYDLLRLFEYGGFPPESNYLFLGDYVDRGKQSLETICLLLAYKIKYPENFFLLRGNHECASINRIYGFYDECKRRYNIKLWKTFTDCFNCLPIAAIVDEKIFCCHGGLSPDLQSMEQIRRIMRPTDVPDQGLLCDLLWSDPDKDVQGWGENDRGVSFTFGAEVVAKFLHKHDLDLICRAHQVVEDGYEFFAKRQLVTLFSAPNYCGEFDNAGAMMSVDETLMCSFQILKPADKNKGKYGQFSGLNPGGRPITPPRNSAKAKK

SMILES: CS(=O)(=O)N1CCN(c2ccc(NC(=O)c3ccc([N+](=O)[O-])o3)cc2)CC1
- CC50 [1]: 4.95 µM (active)
- AC50 [2]: 4.92 µM (active)
- AC50 [3]: 5.65 µM (active)
- AC50 [4]: 64.6 µM (active)
- AC50 [5]: 7.78 µM (active)
- AC50 [6]: 49.3 µM (active)

SMILES: Cc1cc(O)c(C(=O)/C=C/c2c(F)c(F)c(F)c(F)c2F)c(=O)o1
- IC50 [7]: 8.85 µM (active)

SMILES: Oc1c(C(c2ccccn2)N2CCOCC2)ccc2cccnc12 (configuration not stated)
- EC50 [8]: > 150 µM (inactive)
- IC50 [9]: 2.36 µM (active)
- EC50 [10]: > 38 µM (not active)
- EC50 [11]: > 20 µM (not active)
- EC50 [12]: > 20 µM (not active)
- IC50 [13]: > 67 µM (not active)
- IC50 [14]: > 50 µM (not active)
- IC50 [15]: > 50 µM (not active)
- EC50 [16]: 74.8 µM (active)

SMILES: C=CCN1CC[C@]23c4c5ccc(O)c4O[C@H]2C(=O)CC[C@@]3(O)[C@H]1C5 [NALOXONE HYDROCHLORIDE]
- EC50 [17]: > 31.5 µM (inactive)

SMILES: O=C(CSc1nnc(-c2cccnc2)n1Cc1ccco1)N1c2ccccc2Sc2ccccc21
- IC50 [18]: > 50 µM (not active)
- IC50 [19]: > 50 µM (not active)

SMILES: Cn1cccc1/C=C1/SC(=S)N(CC(=O)O)C1=O
- EC50 [20]: > 100 µM (active)

SMILES: CCN(CC)c1ccc(/C=N/NC(=O)c2ccco2)cc1
- EC50 [21]: > 49.7 µM (not active)
- EC50 [22]: > 49.7 µM (not active)

SMILES: CCCCn1c(=O)c(C(=O)NCc2ccccc2)c(O)c2ccccc21
- EC50 [23]: 17.5 µM (active)
- EC50 [24]: > 500 µM (not active)
- EC50 [25]: 6.35 µM (active)
- EC50 [26]: > 150 µM (inconclusive)
- AC50 [27]: 8.37 µM (active)

SMILES: CCOC(=O)c1sc(NC(=O)c2sc(C)nc2C)nc1C
- IC50 [28]: > 39.8 µM (not active)

SMILES: CN1Cc2cc(C(=O)c3cc(Cl)cc(CSc4ncccn4)c3O)cnc2NC1=O
- EC50 [29]: < 0.1 µM (active)
- EC50 [30]: 0.449 µM (active)
- EC50 [23]: 13.8 µM (active)
- EC50 [31]: 0.812 µM (active)
- EC50 [32]: < 0.1 µM (active)
- EC50 [25]: > 150 µM (not active)
- IC50 [33]: > 50 µM (not active)
- EC50 [26]: > 150 µM (not active)
- EC50 [34]: 0.799 µM (active)
